Assay results as given in BindingDB's records for patent US20230312571 (Fujian Akeylink Biotechnology, 2023).

Molecular target: Replicase polyprotein 1a (Severe acute respiratory syndrome coronavirus 2, UniProt P0DTC1)
Test: Evaluation of the in Vitro Anti-Novel Coronavirus Mpro Protease Activity
Procedure: The compound was dissolved in DMSO, and diluted in a 3-fold gradient with Echo655 according to the concentration requirements to 10 concentration points, and duplicate tests were set at each concentration, and the diluted solution was added to a 384-well plate. Mpro protein and substrate were diluted with test buffer (100 mM NaCl, 20 mM Tris-HCl, 1 mM EDTA), and Mpro protein was added to the 384-well test plate, incubated with the compound for 30 min at room temperature, and then the substrate was added thereto, and the test concentration of Mpro protein was 25 nM, and the test concentration of substrate was 25 µM. After incubating for 60 minutes in a 30° C. constant temperature incubator, the fluorescence signal value of Ex/Em=340 nm/490 nm was detected by microplate reader. At the same time, the background well containing the substrate and compound but not containing Mpro protein was detected as control.

## N#C[C@H](C[C@@H]1CCNC1=O)NC(=O)[C@@H]1[C@H]2CC[C@H](C2)N1C(=O)[C@@H](NC(=O)C(F)(F)F)C1CCCCC1 [US20230312571, Compound 2]
  IC50: 0.249 µM
